Experimental data: US10315994B2, “Photostable compounds, absorbing compounds and uses thereof” (Commonwealth Scientific and Industrial Research Organisation, priority 2015, dated 2019)
Each block holds one compound with its values, some of them ahead of it.

Experiments:
Type in all cases: physicochemical
[1] = Photostability of thin films exposed to xenon arc lamp; settings: for % λmax (% of original absorbance remaining): absorbance at λmax, irradiated vs unirradiated; for % λmax (% of original absorbance remaining) / % abs total (% of original absorbance remaining): xenon arc lamp 1 hour, thin film; for % abs total (% of original absorbance remaining): sum of absorbance 290-400 nm
Method: 1 mL of a 3% solution of the test compound (30 mg of test compound in 1 mL solvent) was prepared in a solvent mix made up of 50% EtOH and 25% capric/caprylic triglyceride and 25% C12-C15 alkyl benzoate. 50 μL of this solution (containing 1.5 mg of test compound) was added carefully to the centre of a glass microscope slide and the volatile components left to evaporate in the dark for at least 3 hours to give a liquid film. […] The irradiation was performed in a fume cupboard where the air flow was sufficient to keep sample T<30° C. One hour's exposure represented a calculated radiation dose (using meter) of approximately 100 MED.
In order to calculate the photostability of the test compounds, the exposed slides were placed in a beaker and rinsed with 2×5 mL EtOH, 1×5 mL MeOH. The combined washings were then added to a 100 mL volumetric flask and made up to 100 mL total volume with methanol. The UV absorbance was then measured in a 10 mm cuvette. The percent stability is measured as the ratio of absorbance at λmax for the irradiated sample compared to the unirradiated sample. As a further measure, a comparison of the sum of the absorbance in the 290-400 nm range was calculated.
The thin films are a good surrogate for testing the stability of a candidate in a sunscreen formulation as they use cosmetic emollients as solvent and are formed at cosmetically relevant concentrations.

[2] = UV/visible absorbance characteristics (λmax, λcrit, ε, E 1%,1 cm); settings: for ε: in M-1 cm-1 (unit assumed)
[3] = Solubility in sunscreen formulation / 3% solution in EtOH:capric/caprylic triglyceride:C12-C15 alkyl benzoate; settings: for Solubility in standard commercial sunscreen formulations: e.g. 3% solution in 2:1:1 EtOH:capric/caprylic triglyceride:C12-C15 alkyl benzoate
Method: In one embodiment, the compounds may provide for improved solubility or stability in standard compositions, including sunscreen compositions. […] Such solubility may be measured by generating, for example, a 3% solution of the relevant compound in 2:1:1 EtOH:capric/caprylic triglyceride:C12-C15 alkyl benzoate.
1 mL of a 3% solution of the test compound (30 mg of test compound in 1 mL solvent) was prepared in a solvent mix made up of 50% EtOH and 25% capric/caprylic triglyceride and 25% C12-C15 alkyl benzoate. 50 μL of this solution (containing 1.5 mg of test compound) was added carefully to the centre of a glass microscope slide and the volatile components left to evaporate in the dark for at least 3 hours to give a liquid film. The prepared films were then exposed for 1 hour to an Eimac 150 W xenon arc lamp filtered through Pyrex (15 Amp supply current, samples 19 cm from the lamp) previously allowed to warm up for 15 minutes prior to sample exposure. The irradiation was performed in a fume cupboard where the air flow was sufficient to keep sample T<30° C. One hour's exposure represented a calculated radiation dose (using meter) of approximately 100 MED.

- % λmax (% of original absorbance remaining) [1]: 97%
- % decomposed after irradiation ([1]; exposure to the lamp for 1 h): less than 5%
- % abs total (% of original absorbance remaining) [1]: 97%
- E (1%, 1 cm) ([2]; Table 1): 1033
- λcrit ([2]; Table 1): 357 nm
- λmax ([2]; Table 1): 335 nm
- ε ([2]; Table 1): 29040
- Peak point of absorbance curve (figure legend) ([2]; unirradiated control, FIGS. 3-5): approximately 335 nm
Structure (SMILES): CC1(C)CCN(c2ccccc2)C=C1C(=O)C(F)(F)F [Compound 106]

- Photostability, % remaining after irradiation ([1]; exposure to the lamp for 1 h): 22%
- λcrit ([2]; Table 1): 364 nm
Structure (SMILES): CN(CCCCCCN(C)c1ccc(C(=O)C2=CN(C(C)(C)C)CCC2(C)C)cc1)c1ccc(C(=O)C2=CN(C(C)(C)C)CCC2(C)C)cc1 [Compound 109]

- % λmax (% of original absorbance remaining) [1]: 49%
- Photostability, % remaining after irradiation ([1]; exposure to the lamp for 1 h): 49%
- % abs total (% of original absorbance remaining) [1]: 56%
- λmax ([2]; Table 1): ~340 nm
Structure (SMILES): CCCCC(CC)CN(c1ccc(C(=O)C2=CN(C(C)(C)C)CCC2(C)C)cc1)c1ccc(C(=O)C2=CN(C(C)(C)C)CCC2(C)C)cc1 (centres unmarked) [Compound 136]

- Solubility in standard commercial sunscreen formulations [3]: readily soluble
Structure (SMILES): CCCOC(=O)CCC(=O)C1=CN(c2ccc(N3C=C(C(=O)CCC(=O)OCCC)C(C)(C)CC3)cc2)CCC1(C)C [Compound 152]

- % λmax (% of original absorbance remaining) [1]: 52%
- Solubility in standard commercial sunscreen formulations [3]: readily soluble
Structure (SMILES): CCCCC(CC)COC(=O)CCC(=O)C1=CN(c2ccc(N3C=C(C(=O)CCC(=O)OCC(CC)CCCC)C(C)(C)CC3)cc2)CCC1(C)C (centres unmarked) [Compound 153]

- Solubility in standard commercial sunscreen formulations [3]: readily soluble
Structure (SMILES): CC(C)=CCCC(C)CC(=O)C1=CN(c2ccc(N3C=C(C(=O)CC(C)CCC=C(C)C)C(C)(C)CC3)cc2)CCC1(C)C (centres unmarked) [Compound 154]

- Solubility in standard commercial sunscreen formulations [3]: readily soluble
Structure (SMILES): CC(C)=CCCC(C)CC(=O)C1=CN(c2ccc(N3C=C(C(=O)CC(C)CCC=C(C)C)C(C)(C)CC3)cc2)CCC1(C)C (centres unmarked) [Compound 155]

- % λmax (% of original absorbance remaining) [1]: 54%
- Solubility in standard commercial sunscreen formulations [3]: readily soluble
Structure (SMILES): CC1(C)CCN(c2ccc(N3C=C(C(=O)CCC(F)(F)F)C(C)(C)CC3)cc2)C=C1C(=O)CCC(F)(F)F [Compound 157]

Structure (SMILES): CC1(C)CCN(c2cccc(N3C=C(C(=O)C(F)(F)C(F)(F)C(F)(F)F)C(C)(C)CC3)c2)C=C1C(=O)C(F)(F)C(F)(F)C(F)(F)F [Compound 159]
- Photostability (% remains) ([1]; 1 h irradiation): 91%
- E (1%, 1 cm) ([2]; Table 1): 875
- λcrit ([2]; Table 1): 366 nm
- λmax ([2]; Table 1): 348 nm
- ε ([2]; Table 1): 60200
- E (1%, 1 cm) ([2]; Table 4): 875
- ε ([2]; Table 4): 60200

- Photostability (% remains) ([1]; after 1.5 h irradiation): 99 (after 1.5 h, others = 1 h) %
- E (1%, 1 cm) ([2]; Table 1): 1380
- λcrit ([2]; Table 1): 364 nm
- λmax ([2]; Table 1): 346 nm
- ε ([2]; Table 1): 67344
- E (1%, 1 cm) ([2]; Table 4): 1380
- ε ([2]; Table 4): 67344
Structure (SMILES): CC1(C)CCN(c2cccc(N3C=C(C(=O)C(F)(F)F)C(C)(C)CC3)c2)C=C1C(=O)C(F)(F)F [Compound 160]

Structure (SMILES): CC1(C)CCN(C(C)(C)C)C=C1C(=O)C(F)(F)C(F)(F)C(F)(F)C(=O)C1=CN(C(C)(C)C)CCC1(C)C [Compound 168]
- E (1%, 1 cm) ([2]; Table 6): 1177
- λcrit ([2]; Table 6): 337 nm
- λmax ([2]; Table 6): 317 nm
- ε ([2]; Table 6): 63346
- Solubility for determination of photostability ([3]; solvent mix of the photostability method): not sufficiently soluble

- Fate under irradiation [1]: effectively destroyed
- Photostability (%) ([1]; Table 6): 5%
- E (1%, 1 cm) ([2]; Table 6): 497
- λcrit ([2]; Table 6): 361 nm
- λmax ([2]; Table 6): 334 nm
- ε ([2]; Table 6): 16618
Structure (SMILES): CC1(C)CCN(C(C)(C)C)C=C1C(=O)C(Cl)(Cl)Cl [Compound 169]

- Fate under irradiation [1]: effectively destroyed
- Photostability (%) ([1]; Table 6): 13%
- E (1%, 1 cm) ([2]; Table 6): 321
- λcrit ([2]; Table 6): 361 nm
- λmax ([2]; Table 6): 330 nm
- ε ([2]; Table 6): 14203
Structure (SMILES): CC1(C)CCN(C(C)(C)C)C=C1C(=O)C(Br)(Br)Br [Compound 170]

- Photostability (%) ([1]; Table 5): 5%
- E (1%, 1 cm) ([2]; Table 5): 497
- λcrit ([2]; Table 5): 361 nm
- λmax ([2]; Table 5): 334 nm
- ε ([2]; Table 5): 16618
Structure (SMILES): CC1(C)CCN(C(C)(C)C)C=C1C(=O)C(Cl)(Cl)Cl [drawing 124]

- Photostability (%) ([1]; Table 5): 13%
- E (1%, 1 cm) ([2]; Table 5): 321
- λcrit ([2]; Table 5): 361 nm
- λmax ([2]; Table 5): 330 nm
- ε ([2]; Table 5): 14203
Structure (SMILES): CC1(C)CCN(C(C)(C)C)C=C1C(=O)C(Br)(Br)Br [drawing 125]
